Assay results from article PMC7985297 (Communications Biology, 2021).
Where “and” joins values, the source holds several entries; their conditions need not be identical. Equal entries are not always repeated. Entries after “also recorded” stand apart in the source; their conditions may differ.

Tests used:
[1] = target: T1, human AR NTD (AR1–558) fused to Gal4DBD (Gal4-ARN) (Homo sapiens, UniProt P10275); assay: AR NTD transactivation assay (Gal4-ARN) in LNCaP cells; assay type: cell-based; details: EPI-002 25 μM, juglone 20 μM, ATRA 10 μM, 24 h
T1 construct: construct encoding the human AR1–558 of the NTD fused to a Gal4DBD (Gal4-ARN); expressed in transfected cells; host or cells: LNCaP
T1 sequence (P10275 1-558): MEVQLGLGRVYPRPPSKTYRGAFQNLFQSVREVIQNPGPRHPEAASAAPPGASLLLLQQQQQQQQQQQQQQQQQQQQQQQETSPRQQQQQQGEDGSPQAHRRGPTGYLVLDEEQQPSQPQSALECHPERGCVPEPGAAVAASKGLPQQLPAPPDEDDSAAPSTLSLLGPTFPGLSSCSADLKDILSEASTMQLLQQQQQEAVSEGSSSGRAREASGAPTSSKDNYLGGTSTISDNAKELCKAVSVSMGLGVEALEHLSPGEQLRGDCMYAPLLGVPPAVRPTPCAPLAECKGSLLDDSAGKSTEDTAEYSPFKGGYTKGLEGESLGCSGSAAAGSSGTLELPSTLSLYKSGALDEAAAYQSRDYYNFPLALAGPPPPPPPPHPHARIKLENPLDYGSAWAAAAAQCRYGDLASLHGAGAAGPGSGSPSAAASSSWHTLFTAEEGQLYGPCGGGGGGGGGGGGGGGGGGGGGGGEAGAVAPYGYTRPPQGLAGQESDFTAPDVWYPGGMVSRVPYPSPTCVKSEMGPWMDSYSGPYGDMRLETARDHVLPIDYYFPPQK
Text: The remaining putative Pin1-binding sites are within the intrinsically disordered AR NTD that contains transcription activation units, Tau-1 and Tau-5, to mediate androgen-dependent and androgen-independent transactivation, respectively[5],[30]. The loss of AR-LBD shifts the location of transcriptional activity from Tau-1 with androgen, to Tau-5 in the absence of LBD[30].
Error bars show the mean ± s.e.m. *P < 0.05, **P < 0.01, ***P < 0.001; ns not significant.

[2] = target: T2, Gal4-ARN fragments and Gal4-AR234–391 constructs (Homo sapiens, UniProt P10275, P259G); assay: Transactivation assay with Gal4-ARN fragments and Gal4-AR234–391 proline to glycine mutants; assay type: cell-based; details: juglone 20 µM, IL-6 50 ng/mL, 24 h
T2 construct: expressed in transfected cells; host or cells: LNCaP
T2 sequence (P10275 236-393 P259G): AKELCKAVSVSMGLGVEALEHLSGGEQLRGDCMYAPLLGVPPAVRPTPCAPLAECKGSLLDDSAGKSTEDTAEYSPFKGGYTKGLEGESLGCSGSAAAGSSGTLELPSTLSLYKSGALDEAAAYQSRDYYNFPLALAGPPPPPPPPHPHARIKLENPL
Method: (§1) Fig. 3 Pin1 interacts with the AR NTD and regulates transactivation. a, b Transactivation assays performed in LNCaP cells expressing a vector encoding the human AR NTD fused to a Gal4 DNA-binding domain (Gal4-ARN). […] Input samples show Pin1 expression from lysates before the pull-down. i Co-immunoprecipitation assay showing AR protein co-immunoprecipitated with STAT3 from LNCaP cells incubated with EPI-002 (EPI, 35 μM), juglone (JUG, 30 μM), or vehicle (VEH, DMSO), and IL-6 (50 ng/mL) for 6 h. j, k Levels of phosphorylated MAPK (isoforms p44 and p42) and phosphorylated STAT3 (Tyr705 and Ser727) from LNCaP cells pre-treated with juglone (20 µM) and then stimulated with IL-6 (50 ng/mL) for 15 min. Error bars show the mean ± s.e.m. *P < 0.05, **P < 0.01, ***P < 0.001; ns not significant.

[3] = target: T3, Gal4-ARN fragments and Gal4-AR234–391 constructs (Homo sapiens, UniProt P10275, P311G); assay: as above; assay type: cell-based; details: juglone 20 µM, IL-6 50 ng/mL, 24 h
T3 construct: expressed in transfected cells; host or cells: LNCaP
T3 sequence (P10275 236-393 P311G): as the sequence (P10275 236-393 P259G) above, with G24P, P76G counted along it
Method: as §1

[4] = target: T4, Gal4-ARN fragments and Gal4-AR234–391 constructs (Homo sapiens, UniProt P10275); assay: as above; assay type: cell-based; details: juglone 20 µM, IL-6 50 ng/mL, 24 h
T4 construct: expressed in transfected cells; host or cells: LNCaP
Method: as §1

[5] = tested on: Gal4-ARN fragments and Gal4-AR234–391 constructs; assay: as above; assay type: cell-based, human; details: juglone 20 µM, IL-6 50 ng/mL, 24 h
Method: as §1

## O=C1C=CC(=O)c2c(O)cccc21 [juglone]
[1]; IL-6 50 ng/mL
  effect on IL-6-induced transactivation of AR NTD (Gal4-ARN): only inhibited IL-6-induced transactivation
[1]; forskolin 25 μM
  effect on forskolin-induced transactivation of AR NTD (Gal4-ARN): only inhibited IL-6-induced transactivation
[2]
  transactivation, Gal4-AR234–391 P257G (Fig. 3f): 5.034 and 6.44 and 8.824
[3]
  transactivation, Gal4-AR234–391 P309G (Fig. 3f): 4.289 and 4.331 and 7.708
[4]
  transactivation, AR234-391 (Fig. 3e): 5.441 and 3.73 and 3.732
[5]
  effect on IL-6-induced transactivation of Gal4-AR234–391 proline to glycine mutants: inhibited the P257G and P309G mutants to levels that were comparable to wild-type; also recorded: had no effect on the P257G/P309G double mutant
  effect on IL-6-induced transactivation of Gal4-AR NTD fragments (construct named in the value): inhibited transactivation of AR 234–391 and intact AR NTD (1–558); also recorded: only had a modest effect on AR 392–558; also recorded: did not inhibit the activity of Gal4DBD (empty vector) or AR 1–233
  transactivation, Gal4DBD (Fig. 3f): 0.951 and 0.829 and 0.839
